According to paper PMC9346113, “Therapeutic impact of BET inhibitor BI 894999 treatment: backtranslation from the clinic” (British Journal of Cancer, 2022):
Where two headings read alike, the source gives them in different places.

Columns and labels:
[1] = system: 14169 BRD4-NUT; assay: Cell proliferation assay (Alamar readout), 14169; format: cell-based, human; settings: Homo sapiens, 96h, read-out: geomean GI50
Experimental: (§1) The NUT Carcinoma cell line Ty-82 was purchased from JCRB Japan No. 1330 and cultivated in RPMI 1640 supplemented with 10% fetal calf serum (FCS). The NC cell lines 10–15, 14169 and 10326 were in-licensed from Christopher French, Brigham & Womens Hospital, Boston, and were cultivated in DMEM supplemented with glutamax and 10% FCS.
(§2) Viability assays were performed on 96-well flat-bottom microtiter plates and incubated with Alamar Blue solution (Invitrogen, Carlsbad, US-CA). The effects of drug combinations were analysed using the Bliss Independence Model.
Dose response curves (96h cell proliferation assay - Alamar readout) on four NC cell lines with BET inhibitor BI 894999. Yellow bar: readout t zero (before adding of compound). Green bar: DMSO control (max proliferation).
Dose response curves (96h cell proliferation assay - Alamar readout) on four NC cell lines with multiple BET inhibitors.

[2] = system: NC cell lines; assay: Cell proliferation assays, all four NC lines (summary); format: cell-based, human
Experimental: as §1, §2

[3] = system: T1, BRD4-NUT; assay: Immunofluorescence staining of NUT megadomains, Ty-82; format: cell-based, human
T1 construct: endogenous in cells; host or cells: Ty-82 NUT carcinoma cells
Experimental: Cells were seeded on four-well chamber slides (Merck Millipore, #PEZGS0416). After treatment, cells were fixed with 4% PFA (16% Solution, Thermo Fischer #28908 Paraformaldehyde, diluted 1:4 in PBS), permeabilised with 0,1% TX-100 (Sigma #93443, diluted in PBS). After blocking in blocking buffer (10% normal goat serum, Sigma #G9023–10ml, diluted in blocking solution: 2% BSA/PBS, Sigma #A7284–50ml, diluted 1:15 in PBS), the first antibody mAB rabbit anti-NUT 1:1000 (clone C52B1, Cell Signaling #3625) in blocking buffer was added, followed by incubation with the 2nd antibody goat anti-rabbit Alexa*488 1:1000 (Thermo Fisher, #A-11008) in blocking buffer in the dark. Cells were mounted with ProLong Gold Antifade Mountant with DAPI (Thermo Fisher, #P36931) and analysed using a Laser scanning microscope (LSM700). […]
Immunofluorescence staining of NUT megadomains on NC Ty-82 treated with BI with BI 894999 30nM for 1 h, then changed to 10 nM or 5 nM or 2.5 nM or control for 24 h.

[4] = system: T2, BRD3-NUT; assay: Immunofluorescence staining of NUT megadomains, 10326; format: cell-based, human; settings: 10326 cells; 30 minutes treatment
T2 construct: endogenous in cells; host or cells: 10326 NUT carcinoma cells, in culture (A11) and as subcutaneous xenograft tumours in NOG mice (A26)
Experimental: Cells were seeded on four-well chamber slides (Merck Millipore, #PEZGS0416). After treatment, cells were fixed with 4% PFA (16% Solution, Thermo Fischer #28908 Paraformaldehyde, diluted 1:4 in PBS), permeabilised with 0,1% TX-100 (Sigma #93443, diluted in PBS). After blocking in blocking buffer (10% normal goat serum, Sigma #G9023–10ml, diluted in blocking solution: 2% BSA/PBS, Sigma #A7284–50ml, diluted 1:15 in PBS), the first antibody mAB rabbit anti-NUT 1:1000 (clone C52B1, Cell Signaling #3625) in blocking buffer was added, followed by incubation with the 2nd antibody goat anti-rabbit Alexa*488 1:1000 (Thermo Fisher, #A-11008) in blocking buffer in the dark. Cells were mounted with ProLong Gold Antifade Mountant with DAPI (Thermo Fisher, #P36931) and analysed using a Laser scanning microscope (LSM700).
[…] Upper row: antibody against NUT, lower row: DAPI.

[5] = Plasma pharmacokinetics in patients (NCT02516553); format: in vivo
Experimental: (§3) Schedule B (NCT02516553): daily oral treatment from Day 1 to Day 14 at 2.5 mg/day followed by a week-off in 3-week cycles. Schedule C (NCT02516553): one week-on, one week-off treatment, repeated every two weeks in 4-week cycles with, at each treatment week, a loading dose (6 mg) on Day 1 followed by a maintenance dose (3 mg per day) on the following 6 days.

[6] = Phase I trial MTD and platelet counts (NCT02516553); format: in vivo; settings: patients
Experimental: as §3

[7] = system: HEXIM1; assay: Pharmacometrics (PK/PD) simulation; settings: Supplement Fig. 6
Experimental: Pharmacometrics simulation for platelet counts (top) and plasma concentration (bottom) as a function of four different dosing regimens of BI 894999. Solid line of 10nM indicated the estimated plasma concentration needed to stimulate a maximum 2-fold change from baseline for HEXIM1.

[8] = system: HEXIM1; assay: HEXIM1 modulation in mouse blood; format: in vivo; settings: mice; 2 mg/kg p.o.
Description: Cmax and PD modulation of Ty-82 tumors treated with BI 894999.

[9] = system: Ki67; assay: IHC of 10326 xenograft tumours, Ki67; format: in vivo, mice; settings: day 21, BI 894999 monotherapy 2 mg/kg
Experimental: Immunohistochemistry was performed on formalin-fixed, paraffin-embedded tumour tissue using antibodies against human Ki67(Cell Signaling #9027, 1:400 dilution), anti-human mitochondria (Abcam ab92824, 1:1000 dilution) and against endogenous NUT protein (Cell Signaling #3625, 1:50 dilution) used to detect NUT fusion proteins. Digital images of whole tissue sections were acquired using a Leica SCN400 histology scanner (Leica Microsystems). Ki67-positive index was evaluated using Halo Software V. 3.2 (Indica lab). Regions of interest (ROIs) within the tissue sections were first identified using Halo Software via machine learning technology across pathological samples and tissue control, within these ROIs, nuclei were detected and classified as positive or negative based on IHC staining thresholds.
Quantification of Ki67 staining in NC 10326 tumor sections after treatment with BI 894999, CCS1477, or the combination thereof.

[10] = system: human solid and haematological cancer lines as well as primary patient-derived AML samples; settings: cited from earlier work
[11] = GI50, depending on the NC cell line

**Q.** With `CNc1nc(-c2nc3ccc(N4CCN(C)CC4)cc3n2Cc2ccccc2)cn2c(C)nnc12` [BI 894999] as the molecule, how does the GI50 [1] read?
**A.** 0.9 nM

**Q.** What about the “fold more potent than JQ1 and GSK525762” value [2, 11] of the same molecule?
**A.** 40–60 fold

**Q.** And the “more potent than the dual BET/p300 inhibitor NEO2734” value [2, 11]?
**A.** 10–20

**Q.** And the GI50 ([2]; Homo sapiens, TY82, Ty-82, 10–15, 14169, 10326, read-out: GI50 (geomean), range over all NC lines)?
**A.** 0.9 to 2.6 nM

**Q.** And the “time to detachment of BRD-NUT from chromatin” value ([3]; 10–30 nM in Ty-82, 3–10 nM in 10326)?
**A.** ≤ 30 min

**Q.** And the “concentration at which BRD4-NUT detaches from chromatin / is re-distributed” value ([3]; Ty-82, 30 min treatment)?
**A.** 10 to 30 nM

**Q.** And the “speckled staining (BRD-NUT bound to chromatin) after washout” value ([3]; washout experiments)?
**A.** quickly restored

**Q.** And the “concentration at which BRD3-NUT detaches from chromatin” value [4]?
**A.** 3 to 10 nM

**Q.** And the Cmax ([5]; Schedule C, 6 mg loading/3 mg maintenance, Day 1, 19 patients, read-out: maximal plasma concentration (mean Cmax))?
**A.** ~20 nM

**Q.** What about the Cmax ([5]; human, plasma, oral, 2.5 mg, Schedule B, 2.5 mg daily, Day 1, 55 patients, read-out: maximum plasma concentration (mean Cmax)) of the same molecule?
**A.** 5 nM

**Q.** And the Cmax ([5]; human, plasma, oral, 6 mg, Schedule C, 6 mg loading/3 mg maintenance, Day 1, 19 patients, read-out: maximal plasma concentration (mean Cmax))?
**A.** 19 nM

**Q.** And the “tolerability as measured by platelet nadir counts” value ([6]; Schedule C compared to Schedule B at MTD, comparable 6-week cumulative dose (72 vs 70 mg))?
**A.** better tolerability

**Q.** What about the thrombocytopenia events ([6]; Schedule C versus Schedule B at equivalent 6-week cumulative dose) of the same molecule?
**A.** less >Grade 3 thrombocytopenia events

**Q.** And the “MTD, loading dose” value ([6]; Schedule C, Day 1)?
**A.** 6 mg

**Q.** And the “MTD, maintenance dose” value ([6]; Schedule C, following 6 days)?
**A.** 3 mg

**Q.** And the “estimated plasma concentration needed to stimulate a maximum 2-fold change from baseline for HEXIM1” value [7]?
**A.** 10 nM

**Q.** What about the “HEXIM1 modulation in the blood” value [8] of the same molecule?
**A.** ~ 2 fold

**Q.** And the “cell proliferation as assessed by Ki67 levels” value [9]?
**A.** reduced cell proliferation

**Q.** And the GI50 values ([10]; AML cell lines)?
**A.** single-digit nM range

**Q.** And the “fold more potent compared to other BET inhibitors (GSK525762, OTX015, JQ1)” value ([10]; cellular potency in large panels)?
**A.** at least 10 fold
